# Results reported in US10294202B2, “Pyrrolidinones as herbicides” (FMC Corporation, priority 2013, dated 2019).
# Tests used:
# [1] = system: giant foxtail; test: Test A pre-/postemergence herbicide test; format: in vivo, Setaria faberii
# Procedure, shortened: (§1)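 Greenhouse pot test with pre- and postemergence application of surfactant-containing solvent formulations. Postemergence plants were 2–10 cm, one- to two-leaf stage. Response scored visually after ~10 days, 0 (no effect) to 100 (complete control).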
# [2] = system: pigweed; test: Test A pre-/postemergence herbicide test; format: in vivo, Amaranthus retroflexus
# Procedure, shortened: as §1
# [3] = system: corn; test: Test A pre-/postemergence herbicide test; format: in vivo, Zea mays; details: Postemergence
# Procedure, shortened: as §1
# [4] = system: rice; test: Test B flooded paddy test; format: in vivo, Oryza sativa; details: 500 g ai/ha, Flood; scale of 0 to 100 where 0 is no effect and 100 is complete control
# Procedure, shortened: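 Treatment was made at the 2-leaf stage by dosing the standing floodwater, kept 3 cm above soil level for the whole test. Greenhouse exposure lasted 13 to 15 days. Response is a visual percent rating relative to controls, where a dash indicates no test result.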
# [5] = system: ryegrass, Italian; test: Test C pre-/postemergence herbicide test; format: in vivo, Lolium multiflorum
# Procedure, shortened: (§2)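 Greenhouse pots; formulation = non-phytotoxic solvent mix + surfactant. PRE onto seeds in loam:sand; POST at 1–4 leaves (2–18 cm) in peat moss/vermiculite medium. Read-out: visual % control vs untreated, day 13–15.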
# [6] = system: galium; test: Test C pre-/postemergence herbicide test; format: in vivo, Galium aparine; details: Preemergence
# Procedure, shortened: as §2
# [7] = system: johnsongrass; test: Test C pre-/postemergence herbicide test; format: in vivo, Sorghum halepense
# Procedure, shortened: as §2
# [8] = system: nutsedge, yellow; test: Test C pre-/postemergence herbicide test; format: in vivo, Cyperus esculentus
# Procedure, shortened: as §2
# [9] = system: pigweed; test: Test C pre-/postemergence herbicide test; format: in vivo, Amaranthus retroflexus
# Procedure, shortened: as §2
# [10] = system: ragweed; test: Test C pre-/postemergence herbicide test; format: in vivo, Ambrosia elatior
# Procedure, shortened: as §2
# [11] = system: waterhemp; test: Test C pre-/postemergence herbicide test; format: in vivo, Amaranthus rudis
# Procedure, shortened: as §2
# [12] = Postemergence, 125 g ai/ha, visual rating on 0 to 100 scale (0 no effect, 100 complete control), approx. 10 days
# [13] = Postemergence, 500 g ai/ha, 0 to 100 scale (0 no effect, 100 complete control)
# [14] = Preemergence, 125 g ai/ha, 0 to 100 scale where 0 is no effect and 100 is complete control
# [15] = Preemergence, 500 g ai/ha, visual rating on 0 to 100 scale (0 no effect, 100 complete control)
# [16] = Postemergence, 31 g ai/ha, scale 0 to 100 (0 no effect, 100 complete control)
# [17] = Postemergence, 62 g ai/ha, scale 0 (no effect) to 100 (complete control)
# [18] = Postemergence, 125 g ai/ha, scale 0 to 100 (0 no effect, 100 complete control)
# [19] = Postemergence, 250 g ai/ha, scale 0 to 100 (0 no effect, 100 complete control)
# [20] = Preemergence, 62 g ai/ha, scale 0 to 100 (0 no effect, 100 complete control)
# [21] = Preemergence, 125 g ai/ha, scale 0 to 100
# [22] = Preemergence, 31 g ai/ha, scale 0 to 100, 0 is no effect and 100 is complete control
smiles,measurement,setting,value
O=C1NCC(c2cccc(OC(F)F)c2)C1C(=O)Nc1ccccc1F (centres unmarked) [Compound 323],"Plant response rating, Foxtail, Giant",[1]; [12],90
same,"Plant response rating, Foxtail, Giant",[1]; [13],90
same,"Plant response rating, Foxtail, Giant",[1]; [14],90
same,"Foxtail, Giant plant response rating",[1]; [15],90
same,"Plant response rating, Pigweed",[2]; [12],20
same,"Plant response rating, Pigweed",[2]; [13],30
same,"Plant response rating, Pigweed",[2]; [14],20
same,Pigweed plant response rating,[2]; [15],30
same,"Plant response rating, Corn","[3]; 125 g ai/ha, visual rating on 0 to 100 scale (0 no effect, 100 complete control), approx. 10 days",70
same,"Plant response rating, Corn","[3]; 500 g ai/ha, 0 to 100 scale (0 no effect, 100 complete control)",90
same,"Plant response rating, Rice",[4],20
same,"Plant response rating, Ryegrass, Italian",[5]; [16],0
same,"Plant response rating, Ryegrass, Italian",[5]; [17],0
same,"Plant response rating, Ryegrass, Italian",[5]; [18],0
same,"Plant response rating, Ryegrass, Italian",[5]; [19],5
same,"Ryegrass, Italian plant response rating",[5]; [20],10
same,"Plant response rating, Ryegrass, Italian",[5]; [21],0
same,Galium plant response rating,"[6]; 31 g ai/ha, scale 0 to 100, 0 is no effect and 100 is complete control",0
same,Galium plant response rating,"[6]; 62 g ai/ha, scale 0 to 100 (0 no effect, 100 complete control)",0
same,"Plant response rating, Galium","[6]; 125 g ai/ha, scale 0 to 100",85
same,"Plant response rating (scale of 0 to 100), Galium",[6]; 250 g ai/ha,85
same,"Plant response rating, Johnsongrass",[7]; [16],0
same,"Plant response rating, Johnsongrass",[7]; [17],0
same,"Plant response rating, Johnsongrass",[7]; [18],0
same,"Plant response rating, Johnsongrass",[7]; [19],10
same,Johnsongrass plant response rating,[7]; [22],0
same,Johnsongrass plant response rating,[7]; [20],0
same,"Plant response rating, Johnsongrass",[7]; [21],45
same,"Plant response rating (scale of 0 to 100), Johnsongrass","[7]; Preemergence, 250 g ai/ha",60
same,"Plant response rating, Nutsedge, Yellow",[8]; [16],0
same,"Plant response rating, Nutsedge, Yellow",[8]; [17],0
same,"Plant response rating, Nutsedge, Yellow",[8]; [18],0
same,"Plant response rating, Nutsedge, Yellow",[8]; [19],0
same,"Nutsedge, Yellow plant response rating",[8]; [22],20
same,"Nutsedge, Yellow plant response rating",[8]; [20],25
same,"Plant response rating, Nutsedge, Yellow",[8]; [21],25
same,"Plant response rating (scale of 0 to 100), Nutsedge, Yellow","[8]; Preemergence, 250 g ai/ha",75
same,"Plant response rating, Pigweed",[9]; [16],0
same,"Plant response rating, Pigweed",[9]; [17],5
same,"Plant response rating, Pigweed",[9]; [18],25
same,"Plant response rating, Pigweed",[9]; [19],25
same,Pigweed plant response rating,[9]; [22],35
same,Pigweed plant response rating,[9]; [20],35
same,"Plant response rating, Pigweed",[9]; [21],55
same,"Plant response rating, Ragweed",[10]; [16],0
same,"Plant response rating, Ragweed",[10]; [17],0
same,"Plant response rating, Ragweed",[10]; [18],15
same,"Plant response rating, Ragweed",[10]; [19],20
same,Ragweed plant response rating,[10]; [20],10
same,"Plant response rating, Ragweed",[10]; [21],40
same,"Plant response rating, Waterhemp",[11]; [16],0
same,"Plant response rating, Waterhemp",[11]; [17],0
same,"Plant response rating, Waterhemp",[11]; [18],0
same,"Plant response rating, Waterhemp",[11]; [19],20
same,Waterhemp plant response rating,[11]; [20],50
same,"Plant response rating, Waterhemp",[11]; [21],60
